Results from ChEMBL document CHEMBL2057079, “Activity-based fluorescent probes for monitoring sulfatase activity” (Bioorg Med Chem Lett, 2012).
Activity calls are given as the source filed them. The rule behind the calls is not given here.

Species: Homo sapiens
Test: Binding affinity to arylsulfatase assessed as fluorescence quenching at 10 uM at pH 7.5 after 1.5 hrs by fluorescence spectrophotometry

- Activity: inactive
SMILES: CN(C)c1cccc2c(S(=O)(=O)NCC(O)c3ccc(OS(=O)(=O)O)cc3)cccc12 (stereo unspecified)
